Test results as given in patent US20220378889A1, “NEO-EPITOPE VACCINES AND METHODS OF TREATING CANCER” (Epivax Therapeutics Inc., priority 2019, published 2022).

Experiments:
[1] = test system: CT26 murine colon tumor cells; test: CT26 tumor growth with or without poly-ICLC (Example 13); assay type: in vivo, BALB/c mice; settings: day 25 post-tumor implantation; sc twice per week for three weeks from day 4
Protocol: The goal of this experiment was to determine the requirement for the inclusion of the adjuvant poly-ICLC in a peptide vaccine containing ANCER™ selected neoantigens. For this experiment, female BALB/c mice were implanted subcutaneously with 3×10^5 CT26 murine colon tumor cells. Tumor growth was monitored by caliper measurement and mice were sacrificed 45 days after tumor implantation or when tumor volumes reached 2000 mm^3, whichever came first.
Four vaccine groups were tested (n=10 mice/group):
Group 2=PBS with 50 μg poly-ICLC
Group 3=20 ANCER™ selected (uncapped) peptides with 50 μg poly-ICLC
Group 4=20 ANCER™ selected (uncapped) peptides only
Peptide vaccines were comprised of 20 different ANCER™ selected peptides at a concentration of 5 μg/peptide for a total dose of 100 μg peptide per immunization. Mice were immunized subcutaneously in the opposite flank from tumor implantation twice per week for three weeks, starting at day 4 post-tumor implantation.

CT26 tumor cells = test: CT26 tumor growth and survival after vaccination (Example 1); settings: N=10 mice per group
Protocol: Mice were separated into three groups: 1) PBS control; 2) poly-ICLC (vehicle); 3) ANCER™-selected CT26 Neoantigen Peptides+poly-ICLC. • Group 1: PBS, sc injections at days 5, 8, 12, 15, 19, 22, and 26. • Group 2: poly-ICLC, 50 μg, sc injections at days 5, 8, 12, 15, 19, 22, and 26. • Group 3: 5 μg/ANCER™-selected CT26 Neoantigen Peptide (100 μg total ANCER™-selected CT26 Neoantigen Peptides)+50 μg poly-ICLC, sc injections at days 5, 8, 12, 15, 19, 22, and 26.
All mice (N=10 mice per group) were injected 3*10^5 CT26 tumor cells in 0% Matrigel at day 0. Mice were sacrificed once the tumor volume reached 2,000 mm^3 or at day 45, whichever came first.

Substance: poly-ICLC
- control of tumor growth relative to PBS / poly-ICLC alone [1]: no difference in tumor growth kinetics
- mice reaching endpoint (tumor volume of at least 2,000 mm^3) by day 28 (CT26 tumor cells): 60%
